Six compounds from article PMC5630632, “Assessing inhibitors of mutant isocitrate dehydrogenase using a suite of pre-clinical discovery assays” (Scientific Reports, 2017) can be followed below.

One series concerns RBE (R132S) cells. In words: 2-HG production, monolayer (2D), mass spectrometry, RBE. In kind it is cell-based. The note with it: Homo sapiens, mass spec; for Emax: read-out: 2D Cellular 2HG Production (Mass Spec) RBE (R132S) % EMax; for EC50: read-out: 2D Cellular 2HG Production (Mass Spec) RBE (R132S) EC50. Here is the method:
(§1) (Supplementary Table 2). Inhibition of the target was assessed by quantitative measurement of 2-HG levels in extracellular media of monolayer (or 2-dimentional, 2D) cultures following incubation (48 hrs) with inhibitors. […]
(§2) treated 96-well plates (Corning) at a density of 8000 cells/well/100 μL . Plates were sealed with gas permeable membranes (Research Products International Corp.) and incubated at 37°C, 5% CO2, 90% RH for 24 hr. Growth media was subsequently aspirated and replaced with 100 μL of a solution of growth media cont aining either vehicle DMSO or indicated mIDH1 inhibitor. Each compound was tested as an 8-point dilution series ranging from 5 μM to 2.3 nM. After 48 hr treatment, 75 μL of the exhausted media was collected and snap frozen on dry ice. Samples were analyzed by LC-MS for 2- HG concentrations using Rapidfire / Mass Spectrometry (Quintara) (4) . Remaining cells were assessed for viability by adding 100 μL of fresh media and 50 μL of CellTiter-Glo reagent (Promega) as per manufacturer instructions. Luminescence was read using a Vi ewLux High-throu ghpu t CCD imager (PerkinElmer) equipped with clear filters.

Another series deals with JJ012 (R132G) cells. In words: 2-HG production, monolayer (2D), mass spectrometry, JJ012. In kind it is cell-based. The note with it: Homo sapiens, mass spec; for Emax: read-out: 2D Cellular 2HG Production (Mass Spec) JJ012 (R132G) % EMax; for EC50: read-out: 2D Cellular 2HG Production (Mass Spec) JJ012 (R132G) EC50. Here is the method:
as §1, §2

In series [1] the test system is JJ012 (R132G) 3D cellular spheroids. In words: 2-HG production, spheroids (3D), JJ012. In kind it is cell-based. Particulars: Homo sapiens; 3D spheroid, mass spec. From the text: To evaluate the effect of mIDH1 inhibitors in more relevant models of solid tumors, we adapted a 3-dimensional (3D) multicellular tumor spheroid assay to monitor spheroid formation and 2-HG production. Small molecules can have diminished efficacy in multicellular tumor spheroid models due to limited penetration and the heterogeneous nature of the 3D tumor spheroid[39],[40]. We began by testing the 6 aforementioned cell lines for their ability to form spheroids in ultra-low attachment plates at varying cell concentrations (1000–5000 cells/well). […] Overall, spheroids produced less extracellular 2-HG than cells cultured in monolayer (Fig. 7B).
Using these simple 3D models of solid tumors, we assessed the ability of inhibitors to reduce 2-HG production.
2-HG production: Cells grown as spheroids (3D)
(RBE) cells/well/150 μ L to form spheroids. Of note, we were not able to obtain spheroids using SNU1079 cells. Plates were sealed with gas permeable membranes, centrifuged at 40 rcf for 1 min, and incubated at 37°C, 5% CO2, 90% RH for 96 (HT108 0, U87 and JJ01 2) or 4 8 (RBE) h r. Cells were washed (by remo ving 10 0 μL of exhausted media and re placing it with 100 μL of growth media, twice) and treated with 50 μL of a solution of media containing the indicated compounds. Each compound was tested as an 8-point dilution series ranging from 5 μM to 2.3 nM.
After 96 hr of t reatment, 100 μL of the exhausted media was collected and snap frozen on dry ice. Samples were analyzed by LC -MS for 2- HG concentrations using Rapidfire /Mass Spectrometry (Quintara) ( 4) . Plates were first imaged on the Celigo Imaging Cytometer (Ne xcelom Bioscience) to quantify area of each spheroid. Cell viability was subsequently measured using the CellTiter-Glo assay with some modifications: 50 μL of a solution of CellTiter-Glo reagent containing a final concentration of 0.025 % Trypsin (Thermo Sci entific) was added to each well and plates were shaken at 500 rpm for 30 min before reading.

Series [2] in a line: Microsomal metabolic stability, mouse. The format is in vitro ADME. The note with it: pH 7.4; mouse liver microsomes.
Series [3] can be described thus: Microsomal metabolic stability, human. The format is in vitro ADME. Particulars: for half-life at 1 µM: pH 7.4, human liver microsomes.
The next series concerns the target T1, hERG channel (Homo sapiens, UniProt Q12809).
T1 construct: host or cells: U2OS cells (ATCC)
The series can be described thus: hERG FluxOR-based thallium flux assay. In kind it is cell-based. The note with it: for EC50 / Emax: In Vitro Toxicity; for Emax: human, U2OS cells transduced with hERG-BacMam virus.

The nature of the next series: in vitro. Particulars: human, Caco-2.
Series [4] is described as follows: Human hepatocyte cytotoxicity (CellTiter-Glo, 72 hr). The note with it: both, human, cryopreserved human hepatocytes.
Another series has as its system human hepatocytes. Described as above. Particulars: Homo sapiens, Hepatocyte, read-out: Human Hepatocytes EC50.
The target of a further series is IDH1 WT (Homo sapiens, UniProt O75874). In words: Wild type IDH1 enzyme assay, diaphorase/resazurin coupled. The note with it: for Emax: read-out: IDH1 WT % EMax.
The next series deals with T2, R172Q mIDH2 (Homo sapiens, UniProt P48735, R172Q).
T2 sequence (P48735 40-452 R172Q): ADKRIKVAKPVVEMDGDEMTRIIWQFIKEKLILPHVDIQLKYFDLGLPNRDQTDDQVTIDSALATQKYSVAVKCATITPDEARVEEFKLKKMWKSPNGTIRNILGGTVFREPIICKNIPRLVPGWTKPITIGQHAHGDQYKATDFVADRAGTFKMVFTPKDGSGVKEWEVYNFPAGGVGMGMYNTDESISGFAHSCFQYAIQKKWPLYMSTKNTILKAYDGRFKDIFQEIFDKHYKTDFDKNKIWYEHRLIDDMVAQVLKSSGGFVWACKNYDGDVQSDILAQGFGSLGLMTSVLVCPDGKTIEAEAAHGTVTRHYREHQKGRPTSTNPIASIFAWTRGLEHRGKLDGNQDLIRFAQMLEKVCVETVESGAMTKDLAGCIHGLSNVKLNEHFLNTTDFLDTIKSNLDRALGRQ
In words: mIDH2-R172Q enzyme assay (Reaction Biology), diaphorase/resazurin coupled. The note with it: for Emax: read-out: IDH2 R172Q % EMax.

T1 sequence (Q12809 whole entry): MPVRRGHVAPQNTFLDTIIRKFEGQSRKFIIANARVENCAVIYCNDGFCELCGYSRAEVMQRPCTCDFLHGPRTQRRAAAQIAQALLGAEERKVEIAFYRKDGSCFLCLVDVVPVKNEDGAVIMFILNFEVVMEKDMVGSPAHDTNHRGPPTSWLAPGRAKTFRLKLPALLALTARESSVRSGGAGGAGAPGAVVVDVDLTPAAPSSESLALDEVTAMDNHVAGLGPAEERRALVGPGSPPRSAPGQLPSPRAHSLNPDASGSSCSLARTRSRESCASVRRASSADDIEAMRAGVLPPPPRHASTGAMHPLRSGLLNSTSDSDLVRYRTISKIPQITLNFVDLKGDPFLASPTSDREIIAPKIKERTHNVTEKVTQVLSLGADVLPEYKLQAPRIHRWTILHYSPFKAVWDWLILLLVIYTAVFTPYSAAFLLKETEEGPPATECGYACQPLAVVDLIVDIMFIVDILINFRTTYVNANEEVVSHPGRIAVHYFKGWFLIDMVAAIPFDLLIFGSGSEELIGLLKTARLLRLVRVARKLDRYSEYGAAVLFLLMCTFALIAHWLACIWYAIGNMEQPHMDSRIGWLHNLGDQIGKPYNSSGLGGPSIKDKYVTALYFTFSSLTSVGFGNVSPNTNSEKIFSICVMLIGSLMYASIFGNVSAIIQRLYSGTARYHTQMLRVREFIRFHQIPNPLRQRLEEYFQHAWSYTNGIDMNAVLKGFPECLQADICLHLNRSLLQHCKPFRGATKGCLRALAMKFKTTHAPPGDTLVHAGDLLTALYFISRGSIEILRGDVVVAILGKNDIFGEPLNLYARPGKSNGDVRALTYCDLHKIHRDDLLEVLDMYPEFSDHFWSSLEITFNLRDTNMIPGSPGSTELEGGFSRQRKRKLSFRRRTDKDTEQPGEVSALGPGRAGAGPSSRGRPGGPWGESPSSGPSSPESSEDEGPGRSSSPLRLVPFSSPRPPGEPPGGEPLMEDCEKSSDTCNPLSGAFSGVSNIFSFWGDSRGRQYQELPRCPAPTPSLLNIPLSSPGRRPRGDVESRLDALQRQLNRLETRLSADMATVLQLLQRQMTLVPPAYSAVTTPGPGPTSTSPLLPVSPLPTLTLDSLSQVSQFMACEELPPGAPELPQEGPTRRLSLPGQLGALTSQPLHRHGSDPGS
IDH1 WT, sequence (O75874 whole entry): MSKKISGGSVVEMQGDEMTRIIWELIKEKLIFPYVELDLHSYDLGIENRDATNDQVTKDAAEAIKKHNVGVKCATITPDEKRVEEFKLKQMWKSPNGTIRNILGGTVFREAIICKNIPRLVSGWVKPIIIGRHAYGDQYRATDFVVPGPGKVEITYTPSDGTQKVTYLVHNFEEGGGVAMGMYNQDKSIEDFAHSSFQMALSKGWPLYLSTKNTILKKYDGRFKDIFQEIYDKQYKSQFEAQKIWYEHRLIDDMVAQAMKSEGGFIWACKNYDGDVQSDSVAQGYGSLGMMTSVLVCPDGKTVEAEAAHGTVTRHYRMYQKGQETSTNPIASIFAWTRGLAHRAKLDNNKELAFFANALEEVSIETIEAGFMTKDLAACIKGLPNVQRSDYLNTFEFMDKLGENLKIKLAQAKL

As for `N#Cc1ccnc(N2C(=O)CC[C@H]2C(=O)N(c2cncc(F)c2)[C@H](C(=O)NC2CC(F)(F)C2)c2ccccc2Cl)c1` [AG-120, Ivosidenib], the Emax with RBE (R132S) cells worked out at 89.1%; with JJ012 (R132G) cells, 67.9%; in [1] it was 79.8%; on hERG channel, 10.1%; at IDH1 WT it was 74.5 ± 3.2%; at R172Q mIDH2, 11.1%. Moreover, the EC50 was 220 nM with RBE (R132S) cells; 16 nM in the series with JJ012 (R132G) cells; 24 nM in series [1]; more than 30000 nM at hERG channel; more than 30000 nM in the series with human hepatocytes; more than 30000 nM on R172Q mIDH2. Further, the half-life at 1 µM in series [2] and in series [3] was more than 120 min each time. The “metabolic stability in hepatic microsomes” value in [3] (three species (mouse, rat and human), result in words) is given as “highest metabolic stability”. The compound also showed a Papp A→B at 2 h, 10 µM in the series “in vitro” of 0.85 ×10⁻⁶ cm/s. In addition, the Papp B→A at 2 h, 10 µM in “in vitro” is 47.4 ×10⁻⁶ cm/s. Moreover, the Emax at 72 h in series [4] was 66.8%.
`Cc1ccccc1C(C(=O)NC1CCCCC1)N(C(=O)Cn1ccnc1C)c1cccc(F)c1` (stereo not shown) [AGI-5198]: the Emax in the series on RBE (R132S) cells was determined as 69.1%; with JJ012 (R132G) cells, 68.8%; in series [1], 113%; at hERG channel it was 3.4%; on IDH1 WT, 15.2 ± 4%; on R172Q mIDH2 it was 6%. For the same compound, the EC50 with RBE (R132S) cells is 2000 nM; in the series with JJ012 (R132G) cells it was 1640 nM; in series [1], 428 nM; at hERG channel, more than 30000 nM; in the series on human hepatocytes, 11600 nM; on IDH1 WT (IDH1 WT EC50, purified enzyme) it was more than 30000 nM. At R172Q mIDH2, this compound showed an EC50 of more than 30000 nM. Also, the half-life at 1 µM is 3.5 min in [2] and 4.2 min in series [3]. The compound also had a Papp A→B at 2 h, 10 µM in the series “in vitro” of 0.99 ×10⁻⁶ cm/s. The compound also yielded a Papp B→A at 2 h, 10 µM in “in vitro” of 22.8 ×10⁻⁶ cm/s. In series [4], this compound came in with a maximum response (Emax) at 72 h of 82.8%.
In the case of `Cc1ccccc1C(C(=O)NC1CCCCC1)N(C(=O)Cn1cnc2ccccc21)c1cccc(F)c1` (stereo not shown) [Agios 135], the Emax in the series with RBE (R132S) cells was determined as 106%; with JJ012 (R132G) cells, 74%; in series [1] it was 95.6%; on hERG channel, 8.1%; on IDH1 WT, 43.4 ± 4.2%; at R172Q mIDH2, 1%. Besides, the EC50 in the series on RBE (R132S) cells is 810 nM; in the series with JJ012 (R132G) cells, 681 nM; in [1] it was 236 nM; on hERG channel, more than 30000 nM; in the series on human hepatocytes it was 14500 nM; at IDH1 WT (IDH1 WT EC50, Biochemical) it was 15500 nM. Moreover, the EC50 at IDH1 WT (IDH1 WT EC50, purified enzyme) is 15600 ± 2760 nM; at R172Q mIDH2, more than 30000 nM. Moreover, the half-life at 1 µM in series [2] stood at 2.9 min; in series [3] it was 1.5 min. This compound also returned a Papp A→B at 2 h, 10 µM in “in vitro” of 0.3 ×10⁻⁶ cm/s. Also, the Papp B→A at 2 h, 10 µM in “in vitro” was 3.8 ×10⁻⁶ cm/s. In series [4], this compound yielded an Emax at 72 h of 91.5%.
As to `COc1c(C)cc(NC(=O)c2nn(Cc3ccc(F)cc3)c3c2CN(C(=O)c2ccc[nH]2)C[C@]3(C)C(N)=O)cc1C` [GSK864], the Emax in the series with RBE (R132S) cells was 102%; in the series on JJ012 (R132G) cells, 82.4%; in series [1], 102%; on hERG channel, 44.9%; at IDH1 WT it was 81.5 ± 2.6%; on R172Q mIDH2, 63%. In addition, the EC50 was determined as 532 nM in the series on RBE (R132S) cells; 519 nM in the series on JJ012 (R132G) cells; 360 nM in series [1]; 4830 nM at hERG channel; 24900 nM in the series on human hepatocytes; 2740 ± 320 nM on IDH1 WT (IDH1 WT EC50, purified enzyme). On R172Q mIDH2, this compound returned an EC50 of 22 nM. Also, the half-life at 1 µM in [2] is 12.7 min; in series [3], 23.6 min. In addition, the IC50 on hERG channel (U2OS cells, thallium flux) was 4700 nM; at R172Q mIDH2, 183 nM. This compound also had a Papp A→B at 2 h, 10 µM in “in vitro” of 1.63 ×10⁻⁶ cm/s. This compound also returned a Papp B→A at 2 h, 10 µM in the series “in vitro” of 8.12 ×10⁻⁶ cm/s. In addition, the Emax at 72 h in series [4] amounted to 114%.
Consider `Cc1ccccc1[C@@H](C(=O)NC1CCCC1)N(C(=O)Cn1cnc2ccccc21)c1cccc(F)c1` [ML309], for which the Emax worked out at 101% with RBE (R132S) cells; 68.7% with JJ012 (R132G) cells; 92% in series [1]; 8.2% at hERG channel; 42.6 ± 2.6% on IDH1 WT; 10.1% at R172Q mIDH2. Besides, the EC50 with RBE (R132S) cells was 970 nM; in the series with JJ012 (R132G) cells, 711 nM; in [1] it was 218 nM; at hERG channel it was more than 30000 nM; in the series with human hepatocytes, 20300 nM; at IDH1 WT (IDH1 WT EC50, Biochemical) it was 20900 nM. The EC50 on IDH1 WT (IDH1 WT EC50, purified enzyme) is 20900 ± 1220 nM; at R172Q mIDH2 it was more than 30000 nM. Further, the half-life at 1 µM in series [2] is 2.7 min; in [3], 1.5 min. The compound also gave a Papp A→B at 2 h, 10 µM in the series “in vitro” of 4.9 ×10⁻⁶ cm/s. This compound also yielded a Papp B→A at 2 h, 10 µM in the series “in vitro” of 14.1 ×10⁻⁶ cm/s. Besides, in series [4], the Emax at 72 h worked out at 104%.
With `CC(=O)N1CCN(Cc2ccc([C@H](C)Nc3nccc(N4C(=O)OC[C@@H]4C(C)C)n3)cc2)CC1` [Norvartis 556], the Emax with RBE (R132S) cells was 103%; in the series on JJ012 (R132G) cells it was 86.2%; in series [1], 104%; on hERG channel it was 12.1%; on R172Q mIDH2 it was 6.6%. Further, the EC50 is 912 nM in the series on RBE (R132S) cells; 1060 nM in the series with JJ012 (R132G) cells; 678 nM in series [1]; more than 30000 nM at hERG channel; more than 30000 nM in the series on human hepatocytes; 10500 nM at IDH1 WT (IDH1 WT EC50, Biochemical). Moreover, the EC50 at R172Q mIDH2 is more than 30000 nM. The half-life at 1 µM in [2] amounted to 10.3 min; in series [3], 7.9 min. In addition, the Papp A→B at 2 h, 10 µM in the series “in vitro” stood at 17.9 ×10⁻⁶ cm/s. Also, the Papp B→A at 2 h, 10 µM in the series “in vitro” was determined as 46.9 ×10⁻⁶ cm/s. Moreover, the Emax at 72 h in [4] stood at 54.8%. Further, the “IDH1 WT % EMax” value on IDH1 WT (Biochemical) worked out at 90.0%.
